Test results as given in PubChem BioAssay (NCI).
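Growth conditions: 96-well plates. Treatment: test compound, 48 hours, 5 concentrations. Analysis: linear interpolation between bracketing concentrations; unreached endpoints set to highest concentration. The concentration for full growth arrest is given as TGI.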 Where a SMILES comes first, the peptide text is derived from it. Bridges are numbered along the chain shown (N, C = ends). [ ]: non-standard residue; d: D form. The star is where a group is joined. Cya = N[CH](CS(=O)(=O)O)C(=O)O; X49 = CC(C)CCCCCCCC(O)CC(=O)*; GABA = NCCCC(=O)O

What was measured:
Experiment in all cases: growth of human tumour cells (NCI), 48 h
[1] = test system: HS 578T breast
[2] = test system: PC-3 prostate
[3] = test system: TK-10 renal
[4] = test system: LOX IMVI melanoma
[5] = test system: HL-60(TB) leukemia
[6] = test system: OVCAR-4 ovarian
[7] = test system: A498 renal
[8] = test system: MDA-MB-435
[9] = test system: OVCAR-3 ovarian
[10] = test system: SR leukemia
[11] = test system: CCRF-CEM leukemia
[12] = test system: MDA-MB-231 breast
[13] = test system: T-47D breast
[14] = test system: NCI-H522 lung
[15] = test system: NCI-H226 lung
[16] = test system: SF-539 CNS
[17] = test system: NCI-H23 lung
[18] = test system: HT29 colon
[19] = test system: HOP-92 NSCLC
[20] = test system: ACHN renal
[21] = test system: BT-549 breast
[22] = test system: M14 melanoma
[23] = test system: NCI/ADR-RES ovarian
[24] = test system: 786-0 renal
[25] = test system: DU-145 prostate
[26] = test system: RPMI-8226 leukemia
[27] = test system: SK-OV-3 ovarian
[28] = test system: OVCAR-5 ovarian
[29] = test system: U251 CNS
[30] = test system: HOP-62 NSCLC
[31] = test system: HCT-15 colon
[32] = test system: COLO 205 colon
[33] = test system: K-562 leukemia
[34] = test system: SK-MEL-2 melanoma
[35] = test system: SK-MEL-28 melanoma
[36] = test system: MALME-3M melanoma
[37] = test system: MOLT-4 leukemia
[38] = test system: OVCAR-8 ovarian
[39] = test system: MCF7 breast
[40] = test system: HCC-2998 colon
[41] = test system: SNB-19 CNS
[42] = test system: NCI-H460 lung
[43] = test system: HCT-116 colon
[44] = test system: EKVX NSCLC
[45] = test system: KM12 colon
[46] = test system: SNB-75 CNS
[47] = test system: UACC-257 melanoma
[48] = test system: SW-620 colon
[49] = test system: MDA-N
[50] = test system: IGROV1 ovarian
[51] = test system: CAKI-1 renal
[52] = test system: UO-31 renal
[53] = test system: A549 NSCLC
[54] = test system: UACC-62 melanoma
[55] = test system: SF-295 CNS
[56] = test system: SN12C renal
[57] = test system: SK-MEL-5 melanoma
[58] = test system: RXF 393 renal
[59] = test system: SF-268 CNS

`CC(C)CCCCCCCC(O)CC(=O)NC(CS(=O)(=O)O)C(=O)NC(CC(C)C)C(=O)NCCCC(=O)NC(Cc1cnc[nH]1)C(=O)NC(C)C(=O)NC1C(=O)NC(C(C)O)C(=O)NC(Cc2cnc[nH]2)C(=O)NC(C)C(=O)NC(C(C)O)C(=O)OC1C` (configuration not stated) (X49-[Cya]L[GABA]HATTHAT; ester 6-C; configuration not given here) was tested, and the TGI [1] was > 25 µM, the TGI [2] was > 25 µM and the TGI [3] was > 25 µM. The TGI [4] was > 25 µM, the TGI [5] was > 25 µM and the TGI [6] was > 25 µM. The TGI [7] was > 25 µM, the TGI [8] was > 25 µM and the TGI [9] was > 25 µM. The TGI [10] was > 25 µM, the TGI [11] was > 25 µM and the TGI [12] was > 25 µM. For the same molecule, the TGI [13] was > 25 µM, the TGI [14] was > 25 µM and the TGI [15] was > 25 µM. The TGI [16] was > 25 µM, the TGI [17] was > 25 µM and the TGI [18] was > 25 µM. The TGI [19] was > 25 µM, the TGI [20] was > 25 µM and the TGI [21] was > 25 µM. For the same molecule, the TGI [22] was > 25 µM, the TGI [23] was > 25 µM and the TGI [24] was > 25 µM. For the same molecule, the TGI [25] was > 25 µM, the TGI [26] was > 25 µM and the TGI [27] was > 25 µM. For the same molecule, the TGI [28] was > 25 µM, the TGI [29] was > 25 µM and the TGI [30] was > 25 µM. For the same molecule, the TGI [31] was > 25 µM, the TGI [32] was > 25 µM and the TGI [33] was > 25 µM. For the same molecule, the TGI [34] was > 25 µM, the TGI [35] was > 25 µM and the TGI [36] was > 25 µM. The TGI [37] was > 25 µM, the TGI [38] was > 25 µM and the TGI [39] was > 25 µM. The TGI [40] was > 25 µM, the TGI [41] was > 25 µM and the TGI [42] was > 25 µM. For the same molecule, the TGI [43] was > 25 µM, the TGI [44] was > 25 µM and the TGI [45] was > 25 µM. The TGI [46] was > 25 µM, the TGI [47] was > 25 µM and the TGI [48] was > 25 µM. For the same molecule, the TGI [49] was > 25 µM, the TGI [50] was > 25 µM and the TGI [51] was > 25 µM. For the same molecule, the TGI [52] was > 25 µM, the TGI [53] was > 25 µM and the TGI [54] was > 25 µM. The TGI [55] was > 25 µM, the TGI [56] was > 25 µM and the TGI [57] was > 25 µM.
`Cc1c(C)c(S(=O)(=O)N(CCCCCCN)OCCCN)c(C)c2c1OC(C)(C)CC2` gave a TGI [1] of 13 µM, a TGI [2] of 17.3 µM and a TGI [3] of 32.8 µM. It also gave a TGI [6] of 8.37 µM, a TGI [7] of 40.3 µM and a TGI [8] of 15 µM. The TGI [9] was 7.53 µM, the TGI [10] was > 31.6 µM and the TGI [11] was > 20.9 µM. The TGI [12] was 20.1 µM, the TGI [13] was > 47.1 µM and the TGI [14] was 9.95 µM. The TGI [15] was 27.5 µM, the TGI [16] was > 100 µM and the TGI [17] was 24 µM. It also gave a TGI [18] of 24.9 µM, a TGI [19] of 15.2 µM and a TGI [20] of 25.6 µM. The TGI [21] was 28.6 µM, the TGI [22] was > 64.1 µM and the TGI [23] was 33.2 µM. It also gave a TGI [24] of 11.9 µM, a TGI [25] of 64 µM and a TGI [26] of 7.68 µM. The TGI [27] was 25.2 µM, the TGI [28] was > 51.4 µM and the TGI [58] was 15.6 µM. For the same molecule, the TGI [29] was > 20.7 µM, the TGI [30] was 15.9 µM and the TGI [31] was 34.7 µM. The TGI [32] was > 26.5 µM, the TGI [33] was > 28.3 µM and the TGI [34] was 6.13 µM. It also gave a TGI [35] of 71.9 µM, a TGI [36] of 4.34 µM and a TGI [37] of 10.4 µM. The TGI [38] was 26 µM, the TGI [39] was > 100 µM and the TGI [40] was 3.8 µM. The TGI [41] was 12.9 µM, the TGI [42] was 8.45 µM and the TGI [43] was 4.63 µM. For the same molecule, the TGI [44] was 19.8 µM, the TGI [45] was 3.75 µM and the TGI [46] was 11 µM. The TGI [47] was 29.7 µM, the TGI [49] was 30.9 µM and the TGI [50] was 4.62 µM. For the same molecule, the TGI [59] was 22.5 µM, the TGI [51] was > 53.1 µM and the TGI [52] was 28.6 µM. The TGI [53] was 29 µM, the TGI [54] was 30.6 µM and the TGI [55] was 22.6 µM. The TGI [56] was > 100 µM and the TGI [57] was > 35.6 µM.
In the case of `CC1OC2=N[C@@H]1C(=O)N[C@@H](Cc1ccccc1)C1=N[C@H](C(=O)N[C@@H](Cc3ccccc3)C3=N[C@H](C(=O)N[C@H]2Cc2ccccc2)C(C)O3)C(C)O1` (some centres not stated), the TGI [1] was 65.8 µM, the TGI [2] was 73.2 µM and the TGI [3] was 69.5 µM. The TGI [4] was 39.4 µM, the TGI [6] was > 100 µM and the TGI [7] was 91.9 µM. The TGI [8] was 81.7 µM, the TGI [9] was 75.8 µM and the TGI [10] was 62.6 µM. The TGI [12] was 72 µM, the TGI [13] was > 100 µM and the TGI [15] was 93.9 µM. For the same molecule, the TGI [16] was 47.4 µM, the TGI [17] was > 100 µM and the TGI [18] was 52.5 µM. The TGI [19] was 59.7 µM, the TGI [20] was > 100 µM and the TGI [21] was > 100 µM. The TGI [22] was 56.4 µM, the TGI [23] was > 100 µM and the TGI [25] was > 100 µM. For the same molecule, the TGI [26] was 34.1 µM, the TGI [27] was > 100 µM and the TGI [28] was 68.5 µM. The TGI [58] was > 100 µM, the TGI [30] was > 100 µM and the TGI [31] was > 100 µM. For the same molecule, the TGI [32] was 34.4 µM, the TGI [33] was 68.7 µM and the TGI [34] was 52.3 µM. For the same molecule, the TGI [35] was 69.2 µM, the TGI [36] was 57.6 µM and the TGI [38] was > 100 µM. The TGI [39] was > 100 µM, the TGI [40] was > 100 µM and the TGI [43] was > 100 µM. For the same molecule, the TGI [44] was > 100 µM, the TGI [45] was > 100 µM and the TGI [47] was 71.2 µM. The TGI [48] was > 100 µM, the TGI [49] was > 100 µM and the TGI [50] was > 100 µM. For the same molecule, the TGI [51] was 88.6 µM, the TGI [52] was > 100 µM and the TGI [53] was > 100 µM. The TGI [54] was 80.1 µM, the TGI [55] was > 100 µM and the TGI [56] was > 100 µM. It also gave a TGI [57] of 57.8 µM.
